Read-outs that look alike come from different tables or passages of the source.
Tests used:
[1] = Experimental: Literatural examples indicate that the effectiveness of complex formation may be increased upon the addition of hydroxycarboxylic acids, especially citric acid in case the complex forming cyclodextrin or its complex is subject to aggregation. Often this is the case when parent cyclodextrins are applied. […] As a proof of concept, representative isotherm data were determined in the presence of citric acid (added in equimolar ratio with the pharmacon) and compared to the original dissolved concentrations (Table 2).
[2] = deionised water; for Dissolved Dapagliflozin: 25 ± 2° C.
Experimental: The effect of cyclodextrins on the aqueous solubility of dapagliflozin was studied in deionised water at 25±2° C. The solubilizing effect was studied by preparing samples having a cyclodextrin concentration in the range of 1 to 15 wt. %.
The following cyclodextrins were used: • b-cyclodextrin (BCD): CYL-2518/2 (Wacker Chemie GmbH) • (2-hydroxy)propyl-b-cyclodextrin (HPBCD): E0062 (Roquette Frères) • sulfobutylether-b-cyclodextrin (SBEBCD): 47K040508 (CycloLab)

CCOc1ccc(Cc2cc([C@@H]3O[C@H](CO)[C@@H](O)[C@H](O)[C@H]3O)ccc2Cl)cc1 [dapagliflozin, (2S,3R,4R,5S,6R)-2-[4-chloro-3-(4-ethoxybenzyl)phenyl]-6-(hydroxymethyl)-tetrahydro-2H-pyran-3,4,5-triol]
Dissolved Dapagliflozin ([1]; HPBCD 1.0% + 28 mg citric acid (equimolar with the drug)): 4.1 mg/mL
Dissolved Dapagliflozin ([1]; HPBCD 2.5% + 28 mg citric acid (equimolar with the drug)): 8.1 mg/mL
Dissolved Dapagliflozin ([1]; HPBCD 5.0% + 28 mg citric acid (equimolar with the drug)): 14.3 mg/mL
Dissolved Dapagliflozin ([2]; BCD 0.5 wt. %): 3.3 mg/mL
Dissolved Dapagliflozin ([2]; BCD 1.0 wt. %): 4.7 mg/mL
Dissolved Dapagliflozin ([2]; BCD 1.5 wt. %): 6.3 mg/mL
Dissolved Dapagliflozin ([2]; BCD 2.0 wt. %): 7.7 mg/mL
Dissolved Dapagliflozin ([2]; HPBCD 1.0 wt. %): 4.4 mg/mL
Dissolved Dapagliflozin ([2]; HPBCD 2.0 wt. %): 7.2 mg/mL
Dissolved Dapagliflozin ([2]; HPBCD 2.5 wt. %): 8.6 mg/mL
Dissolved Dapagliflozin ([2]; HPBCD 3.0 wt. %): 9.7 mg/mL
Dissolved Dapagliflozin ([2]; HPBCD 4.0 wt. %): 12.5 mg/mL
Dissolved Dapagliflozin ([2]; HPBCD 5.0 wt. %): 14.4 mg/mL
Dissolved Dapagliflozin ([2]; HPBCD 10.0 wt. %): 14.1 mg/mL
Dissolved Dapagliflozin ([2]; HPBCD 15.0 wt. %): 14.0 mg/mL
Dissolved Dapagliflozin ([2]; HPGCD 1.0 wt. %): 4.2 mg/mL
Dissolved Dapagliflozin ([2]; HPGCD 5.0 wt. %): 11.3 mg/mL
Dissolved Dapagliflozin ([2]; HPGCD 10.0 wt. %): 14.9 mg/mL
Dissolved Dapagliflozin ([2]; HPGCD 15.0 wt. %): 14.4 mg/mL
Dissolved Dapagliflozin ([2]; SBEBCD 1.0 wt. %): 3.8 mg/mL
Dissolved Dapagliflozin ([2]; SBEBCD 5.0 wt. %): 10.7 mg/mL
Dissolved Dapagliflozin ([2]; SBEBCD 10.0 wt. %): 13.1 mg/mL
Dissolved Dapagliflozin ([2]; SBEBCD 15.0 wt. %): 12.8 mg/mL
Dissolved Dapagliflozin ([2]; no cyclodextrin): 1.6 mg/mL
effect of the interactions with cyclodextrins on solubility ([2]; cyclodextrin-concentration dependent): significant solubility enhancement

From US9480755B2, “Pharmaceutical composition comprising dapagliflozin and cyclodextrin” (ratiopharm GmbH, priority 2011, dated 2016)
